Assay results: ChEMBL document CHEMBL5625202, “Synthesis, characterization and anti-breast cancer activities of stachydrine derivatives” (Eur J Med Chem, 2023)
Active and inactive are the calls of the source. The rule behind the calls is not given here.

Columns and labels:
4T1 [1] = experiment: Induction of mitochondrial membrane potential loss in mouse 4T1 cells assessed as green fluorescence at 50 uM incubated for 24 hrs by JC-1 staining based flow cytometric analysis (reference value: 11.7%); format: cell-based
4T1 [2] = experiment: Induction of mitochondrial membrane potential loss in mouse 4T1 cells assessed as red fluorescence at 50 uM incubated for 24 hrs by JC-1 staining based flow cytometric analysis (reference value: 87.9%); format: cell-based
[3] = Prodrug conversion in serum (unknown origin) assessed as drug hydrolysis by measuring stachydrine release at 3 to 20 hrs; format: ADME, cell-free; conditions: time 3-20 hrs
4T1 [4] = experiment: Anticancer activity against mouse 4T1 cells assessed as inhibition of cell growth incubated for 72 hrs by CCK-8 assay; format: functional, cell-based; conditions: 4T1, 72 h
[5] = Prodrug conversion in cell culture medium containing 10% FBS assessed as drug hydrolysis by measuring stachydrine release at 3 to 20 hrs; format: ADME; conditions: cattle; time 3-20 hrs
4T1 [6] = experiment: Induction of apoptosis in mouse 4T1 cells assessed as apoptotic rate at 0.3 micromol/L incubated for 24 hrs by Annexin-V/PI staining based flow cytometry relative to control; format: functional; conditions: dose 0.3 µmol/L, at 0.3 µM
4T1 [7] = experiment: Induction of apoptosis in mouse 4T1 cells assessed as apoptotic rate at 0.04 micromol/L incubated for 24 hrs by Annexin-V/PI staining based flow cytometry relative to control; format: functional; conditions: dose 0.04 µmol/L, at 0.04 µM
4T1 [8] = experiment: Anticancer activity against mouse 4T1 cells assessed as inhibition of cell growth incubated for 24 hrs by CCK-8 assay; format: functional, cell-based; conditions: 4T1, 24 h
[9] = Prodrug conversion in carboxylesterase (unknown origin) solution assessed as drug hydrolysis by measuring stachydrine release at 3 to 20 hrs; format: ADME, Homo sapiens; conditions: time 3-20 hrs
4T1 [10] = experiment: Induction of apoptosis in mouse 4T1 cells assessed as apoptotic rate at 2 micromol/L incubated for 24 hrs by Annexin-V/PI staining based flow cytometry relative to control; format: functional; conditions: dose 2 µmol/L, at 2 µM
4T1 [11] = experiment: Anticancer activity against mouse 4T1 cells assessed as inhibition of cell growth incubated for 48 hrs by CCK-8 assay; format: functional, cell-based; conditions: 4T1, 48 h
[12] = Toxicity in BALB/c mouse implanted with mouse 4T1 cells assessed as reduction in spleen index at 0.2 mmol/Kg, po administered once every day for 14 days relative to control; format: organism-based; conditions: in vivo, 336 h, time 14 day
[13] = Toxicity in BALB/c mouse implanted with mouse 4T1 cells assessed as body weight loss at 0.2 mmol/Kg, po administered once daily for 14 days; format: organism-based; conditions: in vivo, 336 h, time 14 day
4T1 [14] = experiment: Induction of mitochondrial membrane potential loss in mouse 4T1 cells assessed as green fluorescence at 250 uM incubated for 24 hrs by JC-1 staining based flow cytometric analysis (reference value: 11.7%); format: cell-based
[15] = Toxicity in BALB/c mouse implanted with mouse 4T1 cells assessed as increase in ALT level at 0.2 mmol/Kg, po administered once every day for 14 days by routine blood analysis; format: organism-based; conditions: in vivo, 336 h, time 14 day
4T1 [16] = experiment: Antitumor activity against mouse 4T1 cells implanted in BALB/c mouse assessed as tumor cell necrosis at 0.2 mmol/Kg, po administered once every day for 14 days by histological staining based analysis; format: functional, organism-based; conditions: time 14.0 day
[17] = Toxicity in BALB/c mouse implanted with mouse 4T1 cells assessed as effect on BUN level at 0.2 mmol/Kg, po administered once every day for 14 days by routine blood analysis; format: organism-based; conditions: in vivo, 336 h, time 14 day
[18] = Toxicity in BALB/c mouse implanted with mouse 4T1 cells assessed as increase in AST level at 0.2 mmol/Kg, po administered once every day for 14 days by routine blood analysis; format: organism-based; conditions: in vivo, 336 h, time 14 day
[19] = Toxicity in BALB/c mouse implanted with mouse 4T1 cells assessed as change in liver histopathology at 0.2 mmol/Kg, po administered once every day for 14 days; format: organism-based; conditions: in vivo, 336 h, time 14 day
4T1 [20] = experiment: Antitumor activity against mouse 4T1 cells implanted in BALB/c mouse assessed as tumor cell shrinkage at 0.2 mmol/Kg, po administered once every day for 14 days by histological staining based analysis; format: functional, organism-based; conditions: time 14.0 day
[21] = Toxicity in BALB/c mouse implanted with mouse 4T1 cells assessed as increase in white blood cells at 0.2 mmol/Kg, po administered once every day for 14 days by routine blood analysis; format: organism-based; conditions: in vivo, 336 h, time 14 day
[22] = Toxicity in BALB/c mouse implanted with mouse 4T1 cells assessed as increase in monocytes at 0.2 mmol/Kg, po administered once every day for 14 days by routine blood analysis; format: organism-based; conditions: in vivo, 336 h, time 14 day
[23] = Toxicity in BALB/c mouse implanted with mouse 4T1 cells assessed as blurred spleen morphology at 0.2 mmol/Kg, po administered once every day for 14 days; format: organism-based; conditions: in vivo, 336 h, time 14 day
[24] = Toxicity in BALB/c mouse implanted with mouse 4T1 cells assessed as change in lung histopathology at 0.2 mmol/Kg, po administered once every day for 14 days; format: organism-based; conditions: in vivo, 336 h, time 14 day
[25] = Toxicity in BALB/c mouse implanted with mouse 4T1 cells assessed as increase in lymphocytes at 0.2 mmol/Kg, po administered once every day for 14 days by routine blood analysis; format: organism-based; conditions: in vivo, 336 h, time 14 day
4T1 [26] = experiment: Induction of mitochondrial membrane potential loss in mouse 4T1 cells assessed as red fluorescence at 250 uM incubated for 24 hrs by JC-1 staining based flow cytometric analysis (Rvb= 87.9%); format: cell-based
[27] = Toxicity in BALB/c mouse implanted with mouse 4T1 cells assessed as change in kidney histopathology at 0.2 mmol/Kg, po administered once every day for 14 days; format: organism-based; conditions: in vivo, 336 h, time 14 day
[28] = Toxicity in BALB/c mouse implanted with mouse 4T1 cells assessed as increase in neutrophil granulocytes at 0.2 mmol/Kg, po administered once every day for 14 days by routine blood analysis; format: organism-based; conditions: in vivo, 336 h, time 14 day
4T1 [29] = experiment: Antitumor activity against mouse 4T1 cells implanted in BALB/c mouse assessed as tumor growth inhibition at 0.2 mmol/Kg, po administered once every day for 14 days relative to control; format: functional; conditions: 4T1, 336 h, time 14 day, read-out: TGI
[30] = Toxicity in BALB/c mouse implanted with mouse 4T1 cells assessed as splenic edema at 0.2 mmol/Kg, po administered once every day for 14 days; format: organism-based; conditions: in vivo, 336 h, time 14 day
4T1 [31] = experiment: Induction of apoptosis in mouse 4T1 cells assessed as apoptotic rate at 50 micromol/L incubated for 24 hrs by Annexin-V/PI staining based flow cytometry relative to control; format: functional; conditions: dose 50 µmol/L, at 50 µM
4T1 [32] = experiment: Induction of apoptosis in mouse 4T1 cells assessed as apoptotic rate at 1000 micromol/L incubated for 24 hrs by Annexin-V/PI staining based flow cytometry relative to control; format: functional; conditions: dose 1000 µmol/L, at 1000 µM
4T1 [33] = experiment: Inhibition of cell migration in mouse 4T1 cells assessed as reduction in wound healing incubated for 24 hrs by microscopic analysis; format: functional, cell-based
[34] = Toxicity in BALB/c mouse implanted with mouse 4T1 cells assessed as change in heart histopathology at 0.2 mmol/Kg, po administered once every day for 14 days; format: organism-based; conditions: in vivo, 336 h, time 14 day
[35] = Toxicity in BALB/c mouse implanted with mouse 4T1 cells assessed as increase in mean platelet volume at 0.2 mmol/Kg, po administered once every day for 14 days by routine blood analysis; format: organism-based; conditions: in vivo, 336 h, time 14 day
4T1 [36] = experiment: Antitumor activity against mouse 4T1 cells implanted in BALB/c mouse assessed as change in tumor weight at 0.2 mmol/Kg, po administered once every day for 14 days; format: functional, organism-based; conditions: time 14.0 day
[37] = Toxicity in BALB/c mouse implanted with mouse 4T1 cells assessed as effect on CREA level at 0.2 mmol/Kg, po administered once every day for 14 days by routine blood analysis; format: organism-based; conditions: in vivo, 336 h, time 14 day
[38] = Toxicity in BALB/c mouse implanted with mouse 4T1 cells assessed as increase in splenic red pulp at 0.2 mmol/Kg, po administered once every day for 14 days; format: organism-based; conditions: in vivo, 336 h, time 14 day
4T1 [39] = experiment: Induction of apoptosis in mouse 4T1 cells assessed as apoptotic rate at 250 micromol/L incubated for 24 hrs by Annexin-V/PI staining based flow cytometry relative to control; format: functional; conditions: dose 250 µmol/L, at 250 µM
4T1 [40] = experiment: Induction of apoptosis in mouse 4T1 cells assessed as apoptotic rate at 8000 micromol/L incubated for 24 hrs by Annexin-V/PI staining based flow cytometry relative to control; format: functional; conditions: dose 8000 µmol/L, at 8000 µM
4T1 [41] = experiment: Induction of apoptosis in mouse 4T1 cells assessed as apoptotic rate at 4000 micromol/L incubated for 24 hrs by Annexin-V/PI staining based flow cytometry relative to control; format: functional; conditions: dose 4000 µmol/L, at 4000 µM
4T1 [42] = experiment: Induction of mitochondrial membrane potential loss in mouse 4T1 cells assessed as green fluorescence at 4000 uM incubated for 24 hrs by JC-1 staining based flow cytometric analysis (reference value: 11.7%); format: cell-based
4T1 [43] = experiment: Induction of mitochondrial membrane potential loss in mouse 4T1 cells assessed as red fluorescence at 4000 uM incubated for 24 hrs by JC-1 staining based flow cytometric analysis (Rvb= 87.9%); format: cell-based

N#CC(C#N)=NNc1cccc(Cl)c1
Activity (4T1 [1]): 48.4%
Activity (4T1 [2]): 51.1%

CCCCCCCCCCCCCCCCOC(=O)C1CCC[N+]1(C)C.[Cl-] (stereo not drawn)
Drug metabolism [3]: Metabolite_Detected
IC50 (4T1 [4]): 0.341 µM
Drug metabolism [5]: Metabolite_Detected
Activity (4T1 [6]): 62.1%
Activity (4T1 [7]): 52%
IC50 (4T1 [8]): 0.858 µM
Drug metabolism [9]: Metabolite_Detected
Activity (4T1 [10]): 72%
IC50 (4T1 [11]): 0.701 µM

CCCCCCCCCCCCCCCCCCOC(=O)C1CCC[N+]1(C)C (stereo not drawn)
IC50 (4T1 [4]): 2.01 µM
IC50 (4T1 [8]): 2.42 µM
IC50 (4T1 [11]): 2.73 µM

CCCCCCCCOC(=O)C1CCC[N+]1(C)C.[Cl-] (stereo not drawn)
Activity [12]: Toxic
Activity [13]: Toxic
Activity (4T1 [14]): 53.5%
Activity [15]: Toxic
Activity (4T1 [16]): Active
Drug metabolism [3]: Metabolite_Detected
IC50 (4T1 [4]): 140 µM
Activity [17]: Non-Toxic
Activity [18]: Toxic
Activity [19]: Non-Toxic
Activity (4T1 [20]): Active
Drug metabolism [5]: Metabolite_Detected
Activity [21]: Non-Toxic
Activity [22]: Non-Toxic
Activity [23]: Toxic
Activity [24]: Non-Toxic
Activity [25]: Non-Toxic
Activity (4T1 [26]): 46.5%
Activity [27]: Non-Toxic
IC50 (4T1 [8]): 508 µM
Drug metabolism [9]: Metabolite_Detected
Activity [28]: Non-Toxic
inhibition in vivo at 200 µmol/kg (4T1 [29]): 51.5%
Activity [30]: Toxic
Activity (4T1 [31]): 36.82%
Activity (4T1 [32]): 80.8%
inhibition (4T1 [33]): Dose-Dependent Effect
Activity [34]: Non-Toxic
Activity [35]: Non-Toxic
Activity (4T1 [36]): Active
IC50 (4T1 [11]): 249 µM
Activity [37]: Non-Toxic
Activity [38]: Toxic
Activity (4T1 [39]): 69.9%

CCOC(=O)C1CCC[N+]1(C)C (stereo not drawn)
IC50 (4T1 [4]): 7890 µM
IC50 (4T1 [8]): 1710 µM
IC50 (4T1 [11]): 14000 µM

CCCCCCCCCCOC(=O)C1CCC[N+]1(C)C (stereo not drawn)
IC50 (4T1 [4]): 98 µM
IC50 (4T1 [8]): 204 µM
IC50 (4T1 [11]): 136 µM

CCCCCCCCCCCCCCOC(=O)C1CCC[N+]1(C)C (stereo not drawn)
IC50 (4T1 [4]): 57 µM
IC50 (4T1 [8]): 165 µM
IC50 (4T1 [11]): 166 µM

CCCCOC(=O)C1CCC[N+]1(C)C.[Cl-] (stereo not drawn)
Activity [12]: Toxic
Activity [13]: Toxic
Activity [15]: Toxic
Activity (4T1 [16]): Active
Activity (4T1 [40]): 51.28%
Drug metabolism [3]: Metabolite_Detected
Activity (4T1 [41]): 39.8%
IC50 (4T1 [4]): 5170 µM
Activity [17]: Non-Toxic
Activity [18]: Toxic
Activity [19]: Non-Toxic
Activity (4T1 [42]): 38.9%
Activity (4T1 [20]): Active
Drug metabolism [5]: Metabolite_Detected
Activity [21]: Non-Toxic
Activity [22]: Non-Toxic
Activity (4T1 [43]): 60.9%
Activity [23]: Toxic
Activity [24]: Non-Toxic
Activity [25]: Non-Toxic
Activity [27]: Non-Toxic
IC50 (4T1 [8]): 6380 µM
Drug metabolism [9]: Metabolite_Detected
Activity [28]: Non-Toxic
inhibition in vivo at 200 µmol/kg (4T1 [29]): 45.1%
Activity [30]: Toxic
Activity (4T1 [32]): 29.06%
Activity [34]: Non-Toxic
Activity [35]: Non-Toxic
Activity (4T1 [36]): Active
IC50 (4T1 [11]): 6310 µM
Activity [37]: Non-Toxic
Activity [38]: Toxic

CCCCCCOC(=O)C1CCC[N+]1(C)C (stereo not drawn)
IC50 (4T1 [4]): 1100 µM
IC50 (4T1 [8]): 2550 µM
IC50 (4T1 [11]): 1560 µM
